Test results taken from paper PMC6941952, “A homogeneous bioluminescent immunoassay to probe cellular signaling pathway regulation” (Communications Biology, 2020).
Values joined by “and” are separate entries in the source; they are usually repeats but may differ in a detail not shown here. Identical values can stand only once.

Columns and labels:
total IκBα = assay: NanoBiT cell-based immunoassay, total IκBα in human breast tumor epithelial cells; details: for IkB degradation (% compared to no IKK16), Average / IkB degradation (% compared to no IKK16) / Non-Treated/Treated / Raw data / Subtract reagent background: Breast tumor cells, TNF; for IkB degradation (% compared to no IKK16), Average: average of replicates; for IkB degradation (% compared to no IKK16) / Non-Treated/Treated / Raw data / Subtract reagent background: single replicates; for Total IkB Average / Total IkB Raw data / Total IkB Subtract reagent background: Breast Tumor Cells; for Total IkB Average: background subtracted; for Total IkB Raw data / Total IkB Subtract reagent background: listed as TNF
Description: All cell lines used are from ATCC. […] Human Primary Mammary Epithelial Cells (#H-6035), Human Breast Tumor Epithelial Cells (#HC-6035), Complete Human Epithelial Cell Medium (#H6621), and Gelatin-Based Coating Solution (#H6950) were purchased from Cell Biologics. The cells were cultured according to the manufacturer’s procedure. All cells were grown at 37 °C in a 5% CO2 humidified incubator and passaged before reaching 80% cell confluency. Prior to each experiment, cells were counted by combining 30 µl of cell suspension with 30 µl of trypan blue. After gentle pipetting up and down to mix the cells and the dye, the cell number was determined using Bio-Rad TC 20 cell counter.
(§1) Prior to NanoBiT Cell-Based Immunoassay, 50,000 cells were seeded in 160 µl of complete growth media per well of a 96-well plate and incubated overnight. The cells were checked under microscope and it was determined that 50,000 cells per well in 96-well plate is under 90% confluency for all cells tested. If necessary, the cell culture media were replaced with serum-free media after the cells were stably adherent on the plate and incubated overnight. To treat cells with activators or inhibitors, medium was changed to 30 µl of medium containing inhibitors. If activation of a specific pathway is needed, the cells were stimulated with 10 µl of medium containing activators. To lyse the cells, 10 µl of lysis buffer containing 0.1% digitonin diluted in 1X immunoassay buffer with protease and phosphatase inhibitors was added and the plates were mixed vigorously for 20 min. Then, 50 µl of an antibody mix containing two primary antibodies against the target protein and NanoBiT detecting antibodies (0.3 µl each per well), diluted in 1X immunoassay buffer was added to the lysates. The plates were incubated at 23 °C for 90 min, followed by the addition of 25 µl of Nano-Glo® reagent consisting of Nano-Glo® Luciferase Assay Substrate mixed with 1X immunoassay buffer. Luminescence was measured using a plate-reading luminometer.
(§2) Single dose or dose response inhibitor treatments were performed prior to activation of the pathways as follows. For IκBα, the cells were treated in 30 µl medium with IKK16 or MG132 for 60 min before the addition of 10 µl of DMEM containing appropriate concentration of TNFα. To measure phosphorylation of AKT or STAT3, the corresponding NanoBiT immunoassays were developed with MCF-7 or A431 cells, respectively, according the same scheme used to develop the IκBα assay using the primary antibodies for AKT and STAT3 described in the reagents section. For the AKT assay, MCF-7 cells were incubated overnight in phenol-red free DMEM medium (Gibco #21063-029) without serum. Treatment with LY294002 was performed in 30 µl medium and cells were incubated for 60 min before the addition of 1 µM Insulin. To measure STAT3 phosphorylation, A431 cells were incubated overnight in DMEM medium without serum. […] After addition of the stimulators, the cells were incubated for additional times as follows. IκBα phosphorylation and degradation analyses required both time courses and single time points as described in figures. […] The NanoBiT immunoassay protocol was followed as described above.
(§3) All 96-well assay plates were read using a GloMax® 96 Microplate Luminometer from Promega. The instrument was set to 0.5 s integration time. In order to obtain net change of signal, the reagent background values (signal from the well containing all reagent except primary antibodies) were subtracted from the sample values. To plot and analyze the data, Microsoft Excel and GraphPad Prism® Software were used. IC50 values were determined by using a nonlinear regression fit to a sigmoidal dose response (variable slope).

NF-κB p65 Phospho-Ser536 = assay: NanoBiT cell-based immunoassay, phosphorylated p65 in MCF-7 cells; set-up: species or system human; details: for P-p65, Average: background subtracted, average of replicates; for P-p65, Raw data / P-p65, Subtract reagent background: single replicates
Description: as §1, §2, §3

total NF-κB p65 = assay: NanoBiT cell-based immunoassay, total p65 in MCF-7 cells; set-up: species or system human; details: for level of p65: MCF-7 cells, TNFα 50 ng per ml 10 min, IKK16 10 µM 1 h; for Total p65, Average: background subtracted, average of replicates; for Total p65, Raw data / Total p65, Subtract reagent background: single replicates
Description: as §1, §2, §3

## O=C(c1ccc(Nc2nccc(-c3cc4ccccc4s3)n2)cc1)N1CCC(N2CCCC2)CC1 [IKK16]
Total IκBα; IKK16 0.000762939 uM
  IkB degradation (% compared to no IKK16), Average: 97.6%
  IkB degradation (% compared to no IKK16): 92% and 104% and 97%
  Non-Treated/Treated: 3.423 and 4.061 and 3.878
  Raw data: 10940 and 10560 and 10750
  Subtract reagent background: 5493 and 5113 and 5303
Total IκBα; IKK16 0.00305176 uM
  IkB degradation (% compared to no IKK16), Average: 98.3%
  IkB degradation (% compared to no IKK16): 97% and 96% and 102%
  Non-Treated/Treated: 3.600 and 3.739 and 4.102
  Raw data: 10670 and 11000 and 10460
  Subtract reagent background: 5223 and 5553 and 5013
Total IκBα; IKK16 0.012207 uM
  IkB degradation (% compared to no IKK16), Average: 95.1%
  IkB degradation (% compared to no IKK16): 98% and 99% and 88%
  Non-Treated/Treated: 3.656 and 3.857 and 3.531
  Raw data: 10590 and 10830 and 11270
  Subtract reagent background: 5143 and 5383 and 5823
Total IκBα; IKK16 0.0488281 uM
  IkB degradation (% compared to no IKK16), Average: 99.5%
  IkB degradation (% compared to no IKK16): 95% and 97% and 106%
  Non-Treated/Treated: 3.552 and 3.780 and 4.255
  Raw data: 10740 and 10940 and 10280
  Subtract reagent background: 5293 and 5493 and 4833
Total IκBα; IKK16 0.195312 uM
  IkB degradation (% compared to no IKK16), Average: 94.6%
  IkB degradation (% compared to no IKK16): 95% and 102% and 87%
  Non-Treated/Treated: 3.532 and 3.953 and 3.507
  Raw data: 10770 and 10700 and 11310
  Subtract reagent background: 5323 and 5253 and 5863
Total IκBα; IKK16 0.78125 uM
  IkB degradation (% compared to no IKK16), Average: 86.9%
  IkB degradation (% compared to no IKK16): 77% and 92% and 91%
  Non-Treated/Treated: 2.883 and 3.584 and 3.657
  Raw data: 11970 and 11240 and 11070
  Subtract reagent background: 6523 and 5793 and 5623
Total IκBα; IKK16 3.125 uM
  IkB degradation (% compared to no IKK16), Average: 49.5%
  IkB degradation (% compared to no IKK16): 48% and 52% and 49%
  Non-Treated/Treated: 1.799 and 2.002 and 1.952
  Raw data: 15900 and 15820 and 15980
  Subtract reagent background: 10453 and 10373 and 10533
Total IκBα; human primary breast tumor epithelial cells, pretreated 1 h, then TNFα 50 ng per ml 30 min, read-out: IC50, inhibition of TNFα induced degradation of IκBα
  IC50: 1820 nM
NF-κB p65 Phospho-Ser536; MCF-7 cells, 10 µM 1 h, TNFα 50 ng per ml 10 min
  TNFα-increased phosphorylation of p65 on serine 536: inhibited
NF-κB p65 Phospho-Ser536; TNF + Ikk16
  P-p65, Average: 4467
  P-p65, Raw data: 22920 and 23320 and 23680
  P-p65, Subtract reagent background: 4080 and 4480 and 4840
NF-κB p65 Phospho-Ser536; substance alone
  P-p65, Average: 3920
  P-p65, Raw data: 22430 and 21780 and 21730
  P-p65, Subtract reagent background: 4370 and 3720 and 3670
Total NF-κB p65
  level of p65: not affected
Total NF-κB p65; TNF + Ikk16
  Total p65, Average: 726760
  Total p65, Raw data: 756500 and 718200 and 763300
  Total p65, Subtract reagent background: 744060 and 737260 and 698960
Total NF-κB p65; substance alone
  Total p65, Average: 788717
  Total p65, Raw data: 811900 and 763300 and 846900
  Total p65, Subtract reagent background: 828250 and 793250 and 744650

## TNFα
Total IκBα; TNF 2 min
  Total IkB Average: 21090
  Total IkB Raw data: 27000 and 28670 and 28950
  Total IkB Subtract reagent background: 21553 and 21833 and 19883
Total IκBα; TNF 4 min
  Total IkB Average: 18310
  Total IkB Raw data: 25000 and 25490 and 25790
  Total IkB Subtract reagent background: 18373 and 18673 and 17883
Total IκBα; TNF 6 min
  Total IkB Average: 13990
  Total IkB Raw data: 22120 and 20820 and 20380
  Total IkB Subtract reagent background: 13703 and 13263 and 15003
Total IκBα; TNF 8 min
  Total IkB Average: 8950
  Total IkB Raw data: 16890 and 15660 and 15650
  Total IkB Subtract reagent background: 8543 and 8533 and 9773
Total IκBα; TNF 10 min
  Total IkB Average: 6003
  Total IkB Raw data: 13590 and 12910 and 12860
  Total IkB Subtract reagent background: 5793 and 5743 and 6473
Total IκBα; TNF 12 min
  Total IkB Average: 3767
  Total IkB Raw data: 11390 and 10770 and 10490
  Total IkB Subtract reagent background: 3653 and 3373 and 4273
Total IκBα; TNF 15 min
  Total IkB Average: 2118
  Total IkB Raw data: 9632 and 9015 and 9057
  Total IkB Subtract reagent background: 1898 and 1940 and 2515
Total IκBα; TNF 30 min
  Total IkB Average: 1696
  Total IkB Raw data: 8893 and 8691 and 8853
  Total IkB Subtract reagent background: 1574 and 1736 and 1776
Total IκBα; TNF 45 min
  Total IkB Average: 4853
  Total IkB Raw data: 11970 and 11880 and 12060
  Total IkB Subtract reagent background: 4763 and 4943 and 4853
Total IκBα; TNF 60 min
  Total IkB Average: 8867
  Total IkB Raw data: 15500 and 15850 and 16600
  Total IkB Subtract reagent background: 8733 and 9483 and 8383
NF-κB p65 Phospho-Ser536; substance alone
  P-p65, Average: 154463
NF-κB p65 Phospho-Ser536; substance alone, listed as TNF
  P-p65, Raw data: 167400 and 177100 and 183300
  P-p65, Subtract reagent background: 145930 and 155630 and 161830
Total NF-κB p65
  level of p65: not affected
Total NF-κB p65; substance alone
  Total p65, Average: 887990
Total NF-κB p65; substance alone, listed as TNF
  Total p65, Raw data: 913100 and 869100 and 947500
  Total p65, Subtract reagent background: 925590 and 891190 and 847190
